Legend:
[1] = Solubility of lysine: suspension stirred 1 week at constant temperature, lysine analysed in supernatant; format: physicochemical; settings: 20° C.; chloride ions at a molar ratio of 27% or less to the lysine (hydrochloric acid)
Experimental: 70% lysine base solution obtained under (1) above, 35% hydrochloric acid and deionized water were used in the amounts shown in Table 1 below, respectively, to prepare 7 kinds of solutions. In these solutions, the lysine base crystals obtained under (2) above and the lysine hydrochloride.2H2O crystals obtained under (3) above were suspended respectively in the amounts shown in the same table, and then stirred for 1 week during which the temperature was kept at 20° C.
The crystals were removed from these suspensions, and the concentration of the chloride ions in each of the remaining solutions was analyzed by an ion chromatographic analyzer “Yokokawa IC7000 model”, and the concentration of lysine therein was analyzed by an amino acid analyzer “Hitachi L-8500 model”. […]
The crystals were removed from these suspensions, and the concentration of the chloride ions in each of the resulting solutions (supernatants) was analyzed by the ion chromatographic analyzer “Yokokawa IC7000 model”, and the concentration of the lysine therein was analyzed by the amino acid analyzer “Hitachi L-8500 model”. […]

[2] = used in the same molar amount; cited from earlier work
[3] = storage at 50° C. for 6 weeks; cited from earlier work

NCCCC[C@H](N)C(=O)O [lysine]
solubility of lysine compared with the case where the chloride ions are not contained (FIG. 1) [1]: increased

Cl.NCCCC[C@H](N)C(=O)O [L-lysine monohydrochloride]
action in a feeding experiment [2]: same action

NCCCC[C@H](N)C(=O)O [crystalline L-lysine, L-lysine]
coloration after storage [3]: evidently colored | formation of by-products after storage [3]: confirmed

Reference: patent US20020123648A1, “Aqueous stable lysine solution” (AJINOMOTO CO., INC., priority 1999, published 2002)
